In patent US20060046966A1, “Antipicornaviral compounds and compositions, their pharmaceutical uses, and materials for their synthesis” (Agouron Pharmaceuticals, Inc., priority 1998, published 2006) one finds EC50 and kinact/KI data, which are given here for one compound.

Experiment [1] deals with enterovirus type 70 (EV 70). As to the kind of experiment: Anti-enteroviral cell culture assay, EV 70. It counts as cell-based. Particulars: Enterovirus D, MRC5, 96 h; Strain EV-70; MRC-5 cells; four days; XTT. The procedure:
Echovirus type 11 (EV 11) and enterovirus type 70 (EV 70) were purchased from ATCC (Rockville, Md.). Virus stocks were propagated and antiviral assays were performed in MRC-5 cells (ATCC). Cells were grown in minimal essential medium with 10% fetal bovine serum (Life Technologies, Gaithersburg, Md.).
The ability of compounds to protect cells against either EV 11 or EV 70 infection was measured by the XTT dye reduction method (Weislow et al., J. Natl. Cancer Inst. 1989, vol. 81, 577-586). MRC-5 cells were infected with EV 11 or EV 70 at an m.o.i. of 0.003 or 0.004, respectively, or mock-infected with medium only. Infected or uninfected cells were added at 1×10^4 cells per well and incubated with appropriate concentrations of compound. Four days later, XTT/PMS was added to test plates, and the amount of formazan produced was quantified spectrophotometrically at 450/650 nm. The EC50 was calculated as the concentration of compound that increased the formazan production in compound-treated, virus-infected cells to 50% of that produced by compound-free, uninfected cells. The 50% cytotoxic dose (CC50) was calculated as the concentration of compound that decreased formazan production in compound-treated, uninfected cells to 50% of that produced in compound-free, uninfected cells. The therapeutic index (TI) was calculated by dividing the CC50 by the EC50. […]
For orientation: Tetrazolium dyes change colour on reduction, which living cells bring about.

Another experiment has as its system HRV (30). As to the kind of experiment: Antirhinoviral H1-HeLa cell culture assay, HRV serotype 30. The format is cell-based. Particulars: Human rhinovirus sp., H1-HeLa cells, XTT. The procedure:
(§1) In this cell protection assay, the ability of compounds to protect cells against HRV infection was measured by the XTT dye reduction method, which is described in Weislow et al., J. Natl. Cancer Inst. 1989, vol. 81, 577-586.
(§2) H1-HeLa cells were infected with HRV-14 at a multiplicity of infection (m.o.i.) of 0.13 (virus particles/cell) or mock-infected with medium only. Infected or mock-infected cells were resuspended at 8×10^5 cells per mL, and incubated with appropriate concentrations of the compounds to be tested. Two days later, XTT/PMS was added to test plates and the amount of formazan produced was quantified spectrophotometrically at 450/650 nm. The EC50 value was calculated as the concentration of compound that increased the percentage of formazan production in compound-treated, virus-infected cells to 50% of that produced by compound-free, mock-infected cells. The 50% cytotoxic dose (CC50) was calculated as the concentration of compound that decreased the percentage of formazan produced in compound-treated, mock-infected cells to 50% of that produced by compound-free, mock-infected cells. The therapeutic index (TI) was calculated by dividing the CC50 value by the EC50 value. […]

Another experiment has as its system HRV (17). As to the kind of experiment: Antirhinoviral H1-HeLa cell culture assay, HRV serotype 17. The format is cell-based, human rhinovirus. The following applies: Human rhinovirus sp., H1-HeLa cells, XTT. The procedure:
as §1
(§3) H1-HeLa cells were infected with HRV-14 at a multiplicity of infection (m.o.i.) of 0.13 (virus particles/cell) or mock-infected with medium only. Infected or mock-infected cells were resuspended at 8×10^5 cells per mL, and incubated with appropriate concentrations of the compounds to be tested. Two days later, XTT/PMS was added to test plates and the amount of formazan produced was quantified spectrophotometrically at 450/650 nm. The EC50 value was calculated as the concentration of compound that increased the percentage of formazan production in compound-treated, virus-infected cells to 50% of that produced by compound-free, mock-infected cells. The 50% cytotoxic dose (CC50) was calculated as the concentration of compound that decreased the percentage of formazan produced in compound-treated, mock-infected cells to 50% of that produced by compound-free, mock-infected cells. The therapeutic index (TI) was calculated by dividing the CC50 value by the EC50 value.
(§4) All strains of human rhinovirus (HRV) for use in this assay were purchased from American Type Culture Collection (ATCC), except for HRV serotype-14 (produced from the infectious cDNA clone constructed by Dr. Robert Rueckert, Institute for Molecular Virology, University of Wisconsin, Madison, Wis.). HRV stocks were propagated and viral assays were performed in H1-HeLa cells (ATCC). Cells were grown in minimal essential medium with 10% fetal bovine serum, available from Life Technologies (Gaithersburg, Md.).
(§5) The compounds were tested against control compounds WIN 51711, WIN 52084, and WIN 54954 (obtained from Sterling-Winthrop Pharmaceuticals), Pirodavir (obtained from Janssen Pharmaceuticals), and Pleconaril (prepared according to the method described in Diana et al., J. Med. Chem 1995, vol. 38, 1355). […]

The next experiment has as its system HRV (12). As to the kind of experiment: Antirhinoviral H1-HeLa cell culture assay, HRV serotype 12. The format is cell-based. Particulars: Human rhinovirus sp., H1-HeLa cells, XTT. The procedure: as §1, §2
Experiment [2] addresses T1, rhinovirus 3C protease from HRV serotype-14 (Human rhinovirus 14, UniProt P03303).
T1 construct: Recombinant rhinovirus 3C proteases; made in house
As to the kind of experiment: Inhibition of rhinovirus 3C protease (FRET assay), serotype 14. Particulars: read-out: Protease Inhibition kobs/[I], HRV serotype-14 3C protease; progress curves in enzyme start experiments. It counts as biochemical. Put shortly: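 Recombinant 3C protease (50-100 nM) with ~1 μM DABCYL-GRAVFQGPVG-EDANS FRET substrate in 50 mM Tris pH 7.6, 1 mM EDTA, 2% DMSO. Cleavage read as increase in EDANS fluorescence. kobs/[I] derived from progress curves of enzyme-initiated reactions.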

The test system of a further experiment is HRV (9). As to the kind of experiment: Antirhinoviral H1-HeLa cell culture assay, HRV serotype 9. It counts as cell-based, human rhinovirus. Particulars: Human rhinovirus sp., H1-HeLa cells, XTT. The procedure: as §1, §3, §4, §5
Another experiment relates to HRV (25). As to the kind of experiment: Antirhinoviral H1-HeLa cell culture assay, HRV serotype 25. It counts as cell-based. The following applies: Human rhinovirus sp., H1-HeLa cells, XTT. The procedure: as §1, §2
For the next experiment, the system named is HRV (10). As to the kind of experiment: Antirhinoviral H1-HeLa cell culture assay, HRV serotype 10. The format is cell-based, human rhinovirus. The following applies: Human rhinovirus sp., H1-HeLa, H1-HeLa cells, XTT. The procedure, abridged:
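Antiviral EC50 comes from formazan production by infected, compound-treated H1-HeLa cells reaching 50% of the mock-infected, untreated level. Cells grown in MEM/10% FBS were infected at m.o.i. 0.13 and incubated with compound for two days before XTT/PMS addition.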

pEC50: −log10 of the molar value.

T1 sequence (P03303 1538-1719): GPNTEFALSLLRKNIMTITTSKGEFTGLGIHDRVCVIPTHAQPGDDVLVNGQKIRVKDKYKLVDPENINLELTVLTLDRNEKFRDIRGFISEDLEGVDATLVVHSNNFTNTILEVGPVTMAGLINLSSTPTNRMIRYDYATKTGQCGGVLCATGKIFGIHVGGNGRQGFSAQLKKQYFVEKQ

Broadly, the pEC50 is −log10 of the EC50, conventionally taken in molar units. Low readings indicate a large EC50, high ones a small EC50. For the compound `CCOC(=O)/C=C/[C@H](C[C@@H]1CCNC1=O)NC(=O)[C@@H](CC(=O)[C@@H](NC(=O)c1cc(C)on1)C(C)C)Cc1ccc(F)cc1` [Compound B-2, Ethyl-3-{(5′-Methylisoxazole-3′-carbonyl)-L-ValΨ(COCH2)-L-(4-F-Phe)-L-((S)-Pyrrol-Ala)}-E-Propenoate], the negative-log EC50 (pEC50) in experiment [1] was 8.52; in the experiment on HRV (30) it was 7.40; in the experiment with HRV (17) it was 8.00; in the experiment with HRV (12) it was 7.30; with HRV (9) it was 8.22; in the experiment on HRV (25), 7.52. The compound also showed a pEC50 in the experiment with HRV (10) of 7.70. Besides, the kinact/KI in experiment [2] was found to be 1.09e+06 M⁻¹ s⁻¹.
